Columns and labels:
[1] = Stability test (impurity contents by HPLC after storage of the solid); format: physicochemical; details: p-toluenesulfonate; for Increase of the impurity contents: illuminating the samples for 10 days
Hygroscopicity test = format: physicochemical; details: p-toluenesulfonate; for Hygroscopicity (in words): conclusion from Table 4; for Hygroscopic capacity %: 25±1° C.
Procedure: A glass weighing bottle equipped with a stopper was tarred and the weight was recorded as m1. Compound (I) in crystalline form C or amorphous form (about 1.0 g) was placed in the tared weighing bottle and capped with the stopper. The total weight was then recorded as m2. […] The weighing bottle capped with its stopper was weighed on day 5 and day 10 and the weight was recorded as m3.

[2] = Stability test (impurity contents by HPLC after storage of the solid); format: physicochemical; details: p-toluenesulfonate
Procedure: A sample of crystalline form C of compound (I) (100˜200 mg) was placed on a watching glass in the form of a thin layer (thickness ≦5 mm). The samples were exposed to the following conditions: high temperature (60±2° C.) for 10 days; high humidity (25±2° C., 90%±5% relative humidity) for 10 days; illumination condition (visible light 4500 lx±500 lx with ultraviolet light not lower than 0.7 W·h/m^2, 25±2° C., 60%±5% relative humidity) for 10 days; and room temperature (30±2° C., 65%±5% relative humidity) for 10 days, respectively. The impurity contents in the samples were determined at different time points (0, 5 and 10 days) by high performance liquid chromatography (HPLC), and the absorption peaks were normalized relative to the highest peak (corresponds to compound I) which is set to 100%.

[3] = Pharmacokinetics test in beagle dogs; format: in vivo
Procedure: The pharmacokinetic properties of amorphous Compound (I) or the crystalline form C of Compound (I) disclosed herein are assessed in beagle dogs. The LC/MS/MS system used in the analysis consists of an Agilent 1200 Series vacuum degasser, binary pump, well-plate autosampler, thermostatted column compartment, the Agilent G6430 Triple Quadrupole Mass Spectrometer with an electrosprayionization (ESI) source. Quantitative analysis was carried out using MRM mode. The parameters for MRM transitions are in the Table A.
An Agilent XDB-C18, 2.1×30 mm, 3.5 μM column was used for the analysis. 5 μL of the samples were injected. Analysis condition: The mobile phase was 0.1% formic acid in water (A) and 0.1% formic acid in methanol (B). The flow rate was 0.4 mL/min. And the gradient of Mobile phase was in the Table B.
Alternatively, an Agilent 6330 series LC/MS/MS spectrometer equipped with G1312A binary pumps, a G1367A autosampler and a G1314C UV detector were used in the analysis. An ESI source was used on the LC/MS/MS spectrometer. The analysis was done in positive ion mode as appropriate and the MRM transition for each analyte was optimized using standard solution. A Capcell MP-C18 100×4.6 mm I.D., […] column (Phenomenex, Torrance, Calif., USA) was used during the analysis. The mobile phase was 5 mM ammonia acetate, 0.1% MeOH in water (A): 5 mM ammonia acetate, 0.1% MeOH in acetonitrile (B) (70/30, v/v). The flow rate was 0.6 mL/min. Column was maintained at ambient temperature. 20 μL of the samples were injected.
The capsule of the crystalline form C or the amorphous of Compound (I) mixed with adjuvants respectively was administered by gavage to beagle dogs in a dose of 7 or 10 mg/kg. The blood samples (0.3 mL) were drawn at 0.25, 0.5, 1.0, 2.0, 3.0, 4.0, 6.0, 8.0, 12 and 24 hour time points or 0.083, 0.25, 0.5, 1.0, 2.0, 4.0, 6.0, 8.0 and 24 hour time points and centrifuged at 3,000 or 4000 rpm for 2 to 10 min. The plasma solutions were collected, and analyzed by LC/MS/MS as described above. The pharmacokinetic parameters were calculated according to non-compartment model using WinNonlin procedure.

[4] = high humidity (25±2° C., 90%±5% relative humidity), 0 day
[5] = high humidity (25±2° C., 90%±5% relative humidity), 5 days
[6] = high humidity (25±2° C., 90%±5% relative humidity), 10 days
[7] = high temperature (60±2° C.), 10 days
[8] = illuminating condition (visible light 4500 lx±500 lx with UV, 25±2° C., 60%±5% RH), 10 days
[9] = listed as amorphous Compound (I)
[10] = room temperature (30±2° C., 65%±5% relative humidity), 0 day
[11] = high temperature (60±2° C.), 0 day
[12] = high temperature (60±2° C.), 5 days
[13] = illuminating condition (visible light 4500 lx±500 lx with UV, 25±2° C., 60%±5% RH), 0 day
[14] = illuminating condition (visible light 4500 lx±500 lx with UV, 25±2° C., 60%±5% RH), 5 days
[15] = room temperature (30±2° C., 65%±5% relative humidity), 5 days
[16] = room temperature (30±2° C., 65%±5% relative humidity), 10 days
[17] = dog, plasma, po, capsule by gavage, dose 9.9 mg/kg (Form C), 9.7 mg/kg (Amorphous)

The impurity contents [1, 4] | The impurity contents [1, 5] | The impurity contents [1, 6] | The impurity contents [1, 7] | The impurity contents [1, 8] | The impurity contents [1, 10] | Hygroscopic capacity % (Hygroscopicity test; standing time 5 d) | Hygroscopic capacity % (Hygroscopicity test; standing time 10 d) | The impurity contents [2, 11] | The impurity contents [2, 12] | The impurity contents [2, 13] | The impurity contents [2, 14] | The impurity contents [2, 15] | The impurity contents [2, 16] | Compound | also measured
0.14% | 0.11% | 0.07% | 0.10% | 0.56% | 0.14% | 7.74% | 8.48% | 0.14% | 0.13% | 0.14% | 0.36% | 0.07% | 0.07% | Cc1c(C(=O)Nc2ccc(Oc3ccnc4cc(OCC(C)(C)O)ccc34)c(F)c2)c(=O)n(-c2ccccc2)n1C.Cc1ccc(S(=O)(=O)O)cc1 [Amorphous, N-(3-fluoro-4-((7-(2-hydroxy-2-methylpropoxy)quinolin-4-yl)oxy)phenyl)-1,5-dimethyl-3-oxo-2-phenyl-2,3-dihydro-1H-pyrazole-4-carboxamide p-toluenesulfonate] | Increase of the impurity contents [1, 9]: 0.42%; Hygroscopicity (in words) (Hygroscopicity test; [9]): hygroscopic
2.00% | 1.94% | 1.92% | 1.89% | 2.14% | 2.00% | 0.22% | 0.43% | 2.00% | 1.97% | 2.00% | 1.97% | 1.90% | 1.91% | Cc1c(C(=O)Nc2ccc(Oc3ccnc4cc(OCC(C)(C)O)ccc34)c(F)c2)c(=O)n(-c2ccccc2)n1C.Cc1ccc(S(=O)(=O)O)cc1 [Form C, N-(3-fluoro-4-((7-(2-hydroxy-2-methylpropoxy)quinolin-4-yl)oxy)phenyl)-1,5-dimethyl-3-oxo-2-phenyl-2,3-dihydro-1H-pyrazole-4-carboxamide p-toluenesulfonate] | Increase of the impurity contents ([1]; listed as crystalline form C of Compound (I)): 0.14%; Hygroscopicity (in words) (Hygroscopicity test; listed as crystalline form C of compound (I)): not hygroscopic; Exposure and bioavailability in vivo (in words) ([3]; Cmax, AUC0-24h and AUC0-∞ compared with amorphous Compound (I)): good exposure and bioavailability; AUC(0-inf) [3, 17]: 90100 ng·h/mL; Cmax [3, 17]: 4760 ng/mL; Tmax [3, 17]: 4 h; half-life [3, 17]: 14.6 h; AUC(0-t) ([3]; dog, plasma, po, capsule by gavage, dose 9.9 mg/kg (Form C), 9.7 mg/kg (Amorphous), read-out: AUC0-24 h): 59700 ng·h/mL

— patent US9695150B2, “Crystalline form of a substituted quinoline compound and pharmaceutical compositions thereof” (Sunshine Lake Pharma Co., Ltd., priority 2015, dated 2017)
